Test results from patent US20140357713A1, “ANTIMICROBIAL COMPOUNDS AND METHODS OF USE” (NexMed Holdings, Inc., priority 2012, published 2014).
In brackets after ≈: the same amount, converted by molar mass. Read-outs that look alike come from different tables or passages of the source.

Assays:
[1] = system: Escherichia coli (ATCC 25922); assay: Minimum inhibitory concentration (MIC) assay, Example 33; type: cell-based
Protocol: (§1) Thirty compounds were tested for antimicrobial activity using standard procedures and standard strains for both the minimum inhibitory concentration (MIC) assay and a time kill study. Both the MIC assay and the time kill study were performed according to Clinical and Laboratory Standards Institute (CLSI) guidelines. Three bacteria strains, Escherichia coli (ATCC 25922), Pseudomonas aeruginosa (ATCC 27853), Staphulococcus aureus (ATCC 29213), and two fungus strains, Candida albicans (ATCC 90029) and Aspergillus niger (CMCC 98003), were used in the experiments.
(§2) Preparation of cultures. Before the experiment, two days for the bacteria strains and five days for fungus strains, an aliquot was removed from the cultures frozen at −80° C. Medium was added to the surface of an appropriate agar plate and streaked with the aliquot. The plate was incubated for 20 to 24 hrs at 35±2° C. for bacteria or for 5 days at 26-30° C. in incubator for fungus. From the resulting growth on each plate, one isolated colony of similar morphology was selected and re-streaked onto a fresh agar plate using a sterile disposable loop. The plate was incubated 20 to 24 hrs at 35±2° C. or for 5 days at 26-30° C. in an incubator.
(§3) Preparation of Assay Plates with Medium and Drugs. On the day of the assay, CAMHB medium or RPMI 1640 medium was removed from 4′C storage and allowed to reach room temperature. Ninety microliters (μL) of room temperature CAMHB or RPMI 1640 (supplemented with the appropriate concentration of DMSO, if required) were added to rows B-G of each 96-well microtiter plate. Using a pipette, duplicate 180 μL aliquots of each drug stock solution were added to column 1 (e.g. A1 and B1 or C1 and D1 or E1 and F1 or G1 and H1). Using a multichannel pipette or the Provision 2000 liquid handler, serial 2-fold dilutions (90 μL) were performed in each row across the plate to row G. Eighty μL of compounds dilutions were transferred to a 96-deep well plate. Medium, 1,520 μL of CAMHB or RPMI 1640, was added to each well. The contents of the wells were mixed thoroughly. A 50 μL aliquot of each of the resulting mixtures was transferred to a 96-well assay plate.
(§4) For bacteria, a sterile inoculating loop was used to transfer growth from an agar plate culture into about 5 mL of test medium. Using a turbidity meter, this inoculum was adjusted so that its density (600 nm) was equivalent to a 0.5 McFarland barium sulfate standard (0.08-0.13). The resulting suspension was diluted 1:100 into medium to obtain two times test inoculums.
(§5) For Aspergillus niger, sporulating colonies were covered with RPMI 1640, and a suspension was prepared by gently probing the colonies with the tip of a transfer pipette. The suspension was transferred to a sterile tube and mixed with a vortex mixer for 15 seconds. The densities at 530 nm were adjusted to 0.09-0.13 for each sample. The resulting suspension was diluted 1:50 with the medium to obtain two times test inoculums. Fifty μL/well of this inoculum suspension was added to wells of drug-containing plates (1:2 dilution). Plates were incubated at 35° C. for the appropriate times. The MIC was read and recorded according to CLSI guidelines.
(§6) The MIC values for thirty compounds against Escherichia coli, Pseudomonas aeruginosa, Staphulococcus aureus, Candida albicans, and Aspergillus niger were recorded and are presented in Table 3 and Table 4.

[2] = system: Pseudomonas aeruginosa (ATCC 27853); assay: as above; type: cell-based
Protocol: as §1, §2, §3, §4, §5, §6

pH (Table 1) = type: physicochemical
[3] = system: Staphulococcus aureus (ATCC 29213); assay: Minimum inhibitory concentration (MIC) assay, Example 33; type: cell-based, Staphylococcus aureus
Protocol: as §1, §2, §3, §4, §5, §6

[4] = system: Candida albicans (ATCC 90029); assay: as above; type: cell-based
Protocol: as §1, §2, §3
For Candida albicans, a sterile inoculating loop was used to transfer growth from an agar plate culture into a tube with RPMI1640 medium. This inoculum was adjusted so that its density at 530 nm was in the ranges from 0.08 to 0.13. The resulting suspension was diluted 1:50 and further diluted 1:20 with the medium to obtain two times test inoculums.
as §5, §6

[5] = system: Aspergillus niger (CMCC 98003); assay: as above; type: cell-based
Protocol: as §1, §2, §3, §5, §6

[6] = system: Escherichia coli (ATCC 25922); assay: Time kill study, Example 33 (0 to 5 min); type: cell-based; details: 1×MIC
Protocol: as §1
(§7) The viable counts in Log10 CFU/mL at each time point were recorded.
(§8) Time kill studies. Strain suspensions were prepared as described above for the MIC test, and strain suspensions and compound solutions were mixed in the same volume. Samples were removed at specified times including 0 min, 30 sec, 1 min and 5 mins, were diluted in the test medium and streaked on agar. Colonies were counted after 24 to 48 hrs of incubation. […]

[7] = system: Staphylococcus aureus (ATCC 29213); assay: Time kill study, Example 33 (0 to 5 min); type: cell-based; details: 1×MIC
Protocol: as §1, §7, §8

[8] = system: Pseudomonas aeruginosa (ATCC 27853); assay: Time kill study, Example 33 (0 to 5 min); type: cell-based; details: 1×MIC
Protocol: as §1, §7, §8

[9] = Table 19 summary of Example 33 and Example 35
[10] = Escherichia coli, ATCC25922, n = 1, read-out: MIC E. coli
[11] = Escherichia coli, ATCC25922, n = 2, read-out: MIC E. coli
[12] = Pseudomonas aeruginosa, ATCC27853, n = 1, read-out: MIC P. aeruginosa
[13] = Pseudomonas aeruginosa, ATCC27853, n = 2, read-out: MIC P. aeruginosa
[14] = Staphylococcus aureus, ATCC29213, n = 1, read-out: MIC S. aureus
[15] = Staphylococcus aureus, ATCC29213, n = 2, read-out: MIC S. aureus

SMILES | MIC [1, 9] | MIC E. coli ([1]; n = 1) | MIC E. coli ([1]; n = 2) | MIC ([2]; Table 19 summary) | MIC P. aeruginosa ([2]; n = 1) | MIC P. aeruginosa ([2]; n = 2) | pH (pH (Table 1)) | MIC ([3]; Table 19 summary) | MIC S. aureus ([3]; n = 1) | MIC S. aureus ([3]; n = 2) | MIC ([4]; Table 19 summary) | MIC Candida albicans ([4]; n = 1) | MIC Candida albicans ([4]; n = 2) | MIC ([5]; Table 19 summary) | MIC Aspergillus niger ([5]; n = 1) | MIC Aspergillus niger ([5]; n = 2) | Viable counts, Escherichia coli time kill study ([6]; 0.5 min) | Viable counts, Escherichia coli time kill study ([6]; 1 min) | Viable counts, Escherichia coli time kill study ([6]; 5 min) | Viable counts, Escherichia coli time kill study ([6]; time 0) | also measured
CCCCCCCCCCCCOC(=O)[C@H](C)N(C)C.Cl [Nex-57, L-Dodecyl 2-(dimethylamino)propanoate hydrochloride] | 3130 µg/mL | 3130 µg/mL | 3130 µg/mL | 6250 µg/mL | 6250 µg/mL | 6250 µg/mL | 1.57 | 3130 µg/mL | 3130 µg/mL | 3130 µg/mL | >12500 µg/mL | >12500 µg/mL | >12500 µg/mL | >12500 µg/mL | >12500 µg/mL | >12500 µg/mL | <4.0 Log10 CFU/mL | <3.70 Log10 CFU/mL | <3.52 Log10 CFU/mL | 5.78 Log10 CFU/mL | Viable counts, Staphylococcus aureus time kill study ([7]; 0.5 min): 6.17 Log10 CFU/mL; Viable counts, Staphylococcus aureus time kill study ([7]; 1 min): 6.19 Log10 CFU/mL; Viable counts, Staphylococcus aureus time kill study ([7]; 5 min): 5.92 Log10 CFU/mL; Viable counts, Staphylococcus aureus time kill study ([7]; time 0): 6.29 Log10 CFU/mL; Viable counts, Pseudomonas aeruginosa time kill study ([8]; 0.5 min): <4.0 Log10 CFU/mL; Viable counts, Pseudomonas aeruginosa time kill study ([8]; 1 min): <3.70 Log10 CFU/mL; Viable counts, Pseudomonas aeruginosa time kill study ([8]; 5 min): <3.52 Log10 CFU/mL; Viable counts, Pseudomonas aeruginosa time kill study ([8]; time 0): 5.45 Log10 CFU/mL
CCCCCCCCCCCCOC(=O)C(C)N(C)C (centres unmarked) [Nex-30, Dodecyl 2-(dimethylamino)propanoate ethanesulfonate] | 3130 µg/mL | 3130 µg/mL | 3130 µg/mL | 6250 µg/mL | 6250 µg/mL | 6250 µg/mL | 3.79 | 3130 µg/mL | 3130 µg/mL | 3130 µg/mL | >12500 µg/mL | >12500 µg/mL | >12500 µg/mL | >12500 µg/mL | >12500 µg/mL | >12500 µg/mL | 5.46 Log10 CFU/mL | 3.7 Log10 CFU/mL | <3.52 Log10 CFU/mL | 5.83 Log10 CFU/mL | Viable counts, Staphylococcus aureus time kill study ([7]; 0.5 min): 6.23 Log10 CFU/mL; Viable counts, Staphylococcus aureus time kill study ([7]; 1 min): 6.22 Log10 CFU/mL; Viable counts, Staphylococcus aureus time kill study ([7]; 5 min): 6.21 Log10 CFU/mL; Viable counts, Staphylococcus aureus time kill study ([7]; time 0): 6.24 Log10 CFU/mL; Viable counts, Pseudomonas aeruginosa time kill study ([8]; 0.5 min): <4.0 Log10 CFU/mL; Viable counts, Pseudomonas aeruginosa time kill study ([8]; 1 min): <3.70 Log10 CFU/mL; Viable counts, Pseudomonas aeruginosa time kill study ([8]; 5 min): <3.52 Log10 CFU/mL; Viable counts, Pseudomonas aeruginosa time kill study ([8]; time 0): 5.67 Log10 CFU/mL
NCC[C@H](O)C(=O)N[C@@H]1C[C@H](N)[C@@H](O[C@H]2O[C@H](CN)[C@@H](O)[C@H](O)[C@H]2O)[C@H](O)[C@H]1O[C@H]1O[C@H](CO)[C@@H](O)[C@H](N)[C@H]1O [Amikacin, reference compound] |  |  |  |  |  |  |  |  |  |  |  |  |  |  |  |  |  |  |  |  | MIC [1, 10]: 2 µg/mL (≈ 3.42 µM); MIC [1, 11]: 2 µg/mL (≈ 3.42 µM); MIC [2, 12]: 2 µg/mL (≈ 3.42 µM); MIC [2, 13]: 2 µg/mL (≈ 3.42 µM); MIC [3, 14]: 2 µg/mL (≈ 3.42 µM); MIC [3, 15]: 2 µg/mL (≈ 3.42 µM)
C[C@@H]1[C@H](O)[C@@H](C)/C=C/C=C/C=C/C=C/C=C/C=C/C=C/[C@H](O[C@@H]2O[C@H](C)[C@@H](O)[C@H](N)[C@@H]2O)C[C@@H]2O[C@](O)(C[C@@H](O)C[C@@H](O)[C@H](O)CC[C@@H](O)C[C@@H](O)CC(=O)O[C@H]1C)C[C@H](O)[C@H]2C(=O)O [Amphotericin B, reference compound] |  |  |  |  |  |  |  |  |  |  |  | 0.5 µg/mL (≈ 0.541 µM) | 0.5 µg/mL (≈ 0.541 µM) |  | 2000 µg/mL (≈ 2160 µM) | 2000 µg/mL (≈ 2160 µM) |  |  |  |  | 
CCCCCCCCCCCCOC(=O)C(C)N(C)C (centres unmarked) [Nex-46, Dodecyl 2-(dimethylamino)propanoate 2-hydroxyethanesulfonate] | 3130 µg/mL (≈ 11000 µM) | 3130 µg/mL (≈ 11000 µM) | 3130 µg/mL (≈ 11000 µM) | 6250 µg/mL (≈ 21900 µM) | 6250 µg/mL (≈ 21900 µM) | 6250 µg/mL (≈ 21900 µM) | 2.95 | 3130 µg/mL (≈ 11000 µM) | 3130 µg/mL (≈ 11000 µM) | 3130 µg/mL (≈ 11000 µM) | >12500 µg/mL | >12500 µg/mL | >12500 µg/mL | >12500 µg/mL | >12500 µg/mL | >12500 µg/mL | 5.74 Log10 CFU/mL | 5.91 Log10 CFU/mL | 3.97 Log10 CFU/mL | 5.87 Log10 CFU/mL | Viable counts, Staphylococcus aureus time kill study ([7]; 0.5 min): 6.25 Log10 CFU/mL; Viable counts, Staphylococcus aureus time kill study ([7]; 1 min): 6.21 Log10 CFU/mL; Viable counts, Staphylococcus aureus time kill study ([7]; 5 min): 6.21 Log10 CFU/mL; Viable counts, Staphylococcus aureus time kill study ([7]; time 0): 6.26 Log10 CFU/mL; Viable counts, Pseudomonas aeruginosa time kill study ([8]; 0.5 min): 4.48 Log10 CFU/mL; Viable counts, Pseudomonas aeruginosa time kill study ([8]; 1 min): 3.7 Log10 CFU/mL; Viable counts, Pseudomonas aeruginosa time kill study ([8]; 5 min): <3.52 Log10 CFU/mL; Viable counts, Pseudomonas aeruginosa time kill study ([8]; time 0): 5.67 Log10 CFU/mL
CC(C)(O/N=C(\C(=O)N[C@@H]1C(=O)N2C(C(=O)[O-])=C(C[n+]3ccccc3)CS[C@H]12)c1csc(N)n1)C(=O)O [Ceftazidime, reference compound] |  |  |  |  |  |  |  |  |  |  |  |  |  |  |  |  |  |  |  |  | MIC [1, 10]: 0.5 µg/mL (≈ 0.915 µM); MIC [1, 11]: 0.5 µg/mL (≈ 0.915 µM); MIC [2, 12]: 2 µg/mL (≈ 3.66 µM); MIC [2, 13]: 2 µg/mL (≈ 3.66 µM); MIC [3, 14]: 8 µg/mL (≈ 14.6 µM); MIC [3, 15]: 16 µg/mL (≈ 29.3 µM)
OC(Cn1cncn1)(Cn1cncn1)c1ccc(F)cc1F [Fluconazole, reference compound] |  |  |  |  |  |  |  |  |  |  |  |  |  |  |  |  |  |  |  |  | MIC ([4]; Candida albicans, ATCC90029, n = 1, read-out: MIC Candida albicans): 0.25 µg/mL (≈ 0.816 µM); MIC ([4]; Candida albicans, ATCC90029, n = 2, read-out: MIC Candida albicans): 0.25 µg/mL (≈ 0.816 µM); MIC ([5]; Aspergillus niger, CMCC98003, n = 1, read-out: MIC Aspergillus niger): > 4000 µg/mL; MIC ([5]; Aspergillus niger, CMCC98003, n = 2, read-out: MIC Aspergillus niger): > 4000 µg/mL
